Source: patent US9017722B2, “Pharmaceutical composition containing as an active ingredient 5-methyl-1-phenyl-2-(1H)-pyridone” (Intermune, Inc., priority 2001, dated 2015)

Assay: Light exposure testing (color difference after light irradiation)
Type: physicochemical
Settings: for Discoloration / Color difference (ΔE): D65 fluorescent lamp, 3570 Lx, exposure dose 1,200,000 Lx·hr, 25° C., room humidity; for Color difference (ΔE): CIELAB, reflected ray measurement; for light-stability (conclusion from Table 2): light exposure test, 1,200,000 Lx·hr
Experimental: Light exposure test of pirfenidone was carried out under the following condition, using “drug substance” obtained by packing 500 mg of milled pirfenidone drug substance in a heat-sealed transparent SP (Striped Package), “compressed drug substance” obtained by statically compressing 300 mg of milled pirfenidone drug substance, “the plain tablets” obtained in the above Example 1, and “the coated tablets” obtained in the above Example 1. […]
light irradiation apparatus: light stability test apparatus (LTL400-D5) (Nagano Science Equipment Mfg. Co., Ltd.) fluorescent light: D65 fluorescent lamp for color comparing and test temperature and humidity: 25° C., room humidity illumination intensity: 3570 Lx […]
coloring difference measure apparatus: Color analyzer TC-1800MK-II measurement method: reflected ray measurement color specification system: CIELAB measurement condition: second degree visual field

Discoloration	Color difference (ΔE)	light-stability (conclusion from Table 2) (listed as pirfenidone compressed drug substance)	Compound	light-stability (conclusion from Table 2) (listed as pirfenidone drug substance)
remarkable	3.62	have a problem in light-stability	Cc1ccc(=O)n(-c2ccccc2)c1 [Compressed drug substance, 5-Methyl-1-phenyl-2-(1H)-pyridone]	–
slight	0.73	–	Cc1ccc(=O)n(-c2ccccc2)c1 [Drug substance, 5-Methyl-1-phenyl-2-(1H)-pyridone]	remarkable color difference was not observed
